Holding throughout (type): cell-based
Assay [1] concerns IL6. Kind of assay: IL-1β stimulated IL6 inhibition assay in PBMC. The following applies: human PBMCs, IL-1β stimulation, compound overnight, IL6 by MSD after 24 hrs; for IC50: read-out: IL1β stim IL6 inhibition IC50; for Emax: read-out: IL1β stim IL6 inhibition Ymax. On the procedure:
(§1) IL-1β, LPS, or R848 Stimulated IL6 Inhibition and IL-1β Stimulated IL8 Inhibition Assay
(§2) Human PBMC cells were seeded at 2.0×10^6 cells/mL, treated with compound overnight, and dosed with the EC50 concentration of each stimulant (either IL-1B. LPS, or R848) was determined for each donor. After 24 hrs, media was collected and analyzed by MSD for IL6 and/or IL8 levels.

The target of assay [2] is T1, IRAK-4 (Homo sapiens, UniProt Q9NWZ3).
T1 sequence (Q9NWZ3 1-460): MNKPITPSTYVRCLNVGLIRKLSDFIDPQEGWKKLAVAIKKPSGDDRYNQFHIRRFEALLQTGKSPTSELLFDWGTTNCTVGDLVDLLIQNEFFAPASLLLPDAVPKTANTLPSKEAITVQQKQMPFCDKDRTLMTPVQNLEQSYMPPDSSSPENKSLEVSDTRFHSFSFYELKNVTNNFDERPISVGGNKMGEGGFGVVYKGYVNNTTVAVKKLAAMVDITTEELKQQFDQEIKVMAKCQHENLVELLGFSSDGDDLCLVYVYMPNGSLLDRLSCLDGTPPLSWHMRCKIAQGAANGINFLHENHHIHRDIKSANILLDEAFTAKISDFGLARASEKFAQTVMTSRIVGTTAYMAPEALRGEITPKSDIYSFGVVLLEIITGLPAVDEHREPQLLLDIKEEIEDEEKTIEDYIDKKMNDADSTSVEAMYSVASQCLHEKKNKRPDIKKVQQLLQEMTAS
The assay is described as follows: IRAK-4 ELISA, PBMC degradation. The following applies: treated overnight. Details: endogenous in cells; host or cells: PBMC. Summed up: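 OCI-Ly10 cells (1×10^6/ml) or PBMC (2×10^6/ml) treated with compound on the day of seeding and incubated overnight. IRAK-4 protein remaining in cell lysates quantified by sandwich ELISA.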

The subject of assay [3] is IL8. The assay is described as follows: IL-1β stimulated IL8 inhibition assay in PBMC. To be noted: human PBMCs, IL-1β stimulation, compound overnight, IL8 by MSD after 24 hrs; for IC50: read-out: IL1β stim IL8 inhibition IC50; for Emax: read-out: IL1β stim IL8 inhibition Ymax. The protocol:
as §1, §2

Assay [4] has as its target T1, IRAK-4. The assay is described as follows: IRAK-4 ELISA, OCI-Ly10 degradation. Details: endogenous in cells. The following applies: treated overnight; for Dmax: OCI-Ly10, OCI-Ly10 cells; for DC50: OCI-Ly10 cells. On the procedure:
Reagents: Human IRAK-4 Matched Antibody Pair Kit (Abcam ab218182) and ELISA Accessory Pack (Abcam ab210905).
Cell Treatment and Lysis:
1. OCI-Ly10: 200,000 cells are seeded at 1×10^6/ml in 96-well U-bottom plates 200 ul per well, treated with compound the same day. Incubate overnight. 2. PBMC: 800,000 cells are seeded at 2×10^6/ml in 96-well U-bottom deep-well plates, 400 ul per well, treated with compound the same day. Incubate overnight.
Cell lysate is collected and analyzed by ELISA for IRAK-4 levels.

Assay [5] deals with IL6. The assay is described as follows: R848 stimulated IL6 inhibition assay in PBMC. The following applies: PBMC, human PBMCs, R848 stimulation, compound overnight, IL6 by MSD after 24 hrs; for Dmax: Homo sapiens, 24 h, read-out: R848 stim IL6 inhibition Dmax; for IC50: read-out: R848 stim IL6 inhibition IC50. In a few lines:
(§3)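 Seed human PBMC, 2.0×10^6 cells/mL → compound overnight → stimulant (IL-1β, LPS or R848) at per-donor EC50 → 24 hrs → media to MSD for IL6/IL8.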

Assay [6] deals with IL6. Kind of assay: LPS stimulated IL6 inhibition assay in PBMC. To be noted: Homo sapiens, PBMC, 24 h, human PBMCs, LPS stimulation, compound overnight, IL6 by MSD after 24 hrs; for Dmax: read-out: LPS Stim IL6 inhibition Dmax; for IC50: read-out: LPS stim IL6 inhibition IC50. Summed up: as §3

The text below walks through data of patent US20230099344A1, “COMPOUNDS AND METHODS FOR THE TARGETED DEGRADATION OF IRAK-4” (Arvinas Operations, Inc., priority 2021, published 2023).

Molecules are shown by their SMILES. A value given as a limit tells only on which side of the number the result lay.

With `CC(C)Oc1cc2c(cc1NC(=O)c1cnn3cccnc13)CN(C1CCN(CC3CCN(c4ccc5c(c4)CN(C4CCC(=O)NC4=O)C5=O)CC3)CC1)C2=O` (stereo not shown) [Example 6], in assay [1] (Homo sapiens, PBMC, 24 h), the IC50 is below 10 nM. In addition, in assay [1] (PBMC), the Emax was at least 90%. For the same compound, in assay [2], the DC50 is below 1 nM, the Dmax was at least 90% and the “PBMC DC90” value stood at 6 nM. For the same compound, in assay [3], the IC50 was in the range of 10 to 50 nM and the Emax lay within 80 to 90%.
For the compound `CC(C)Oc1cc2c(cc1NC(=O)c1cnn3cccnc13)CN(C1CCN(CC3CCN(c4cc5c(cc4F)C(=O)N(C4CCC(=O)NC4=O)C5=O)CC3)CC1)C2=O` (stereo not shown) [Example 13], in assay [1] (Homo sapiens, PBMC, 24 h), the IC50 lay in the range of 10 to 50 nM. Moreover, the Emax in assay [1] (PBMC) was at least 90%. For the same compound, in assay [2], the DC50 is below 1 nM; the Dmax is at least 90%; the “PBMC DC90” value was “C (C represents a DC90 value ≥25.0 nM and <50 nM)”. Besides, in assay [3], the IC50 was at least 100 nM and the Emax is at least 90%.
In the case of `O=C1CCC(N2Cc3cc(N4CCC(CN5CCC(N6Cc7cc(NC(=O)c8cnn9cccnc89)c(OCC8CC8)cc7C6=O)CC5)CC4)ccc3C2=O)C(=O)N1` (stereo not shown) [Example 22], the IC50 in assay [1] (Homo sapiens, PBMC, 24 h) was below 10 nM. Besides, the Emax in assay [1] (PBMC) is at least 90%. For the same compound, in assay [2], the half-maximal degradation concentration (DC50) was below 1 nM, the Dmax is 80 to 90% and the “PBMC DC90” value is given as “A (A represents a DC90 value <10.0 nM)”. For the same compound, in assay [3], the IC50 lay within 10 to 50 nM and the Emax lay within 70 to 80%.
Turning to `O=C1CCC(N2C(=O)c3ccc(N4CCC(CN5CCC(N6Cc7cc(NC(=O)c8cnn9cccnc89)c(N8CCOCC8)cc7C6=O)CC5)CC4)cc3C2=O)C(=O)N1` (stereo not shown) [Example 31], in assay [1] (PBMC), the Emax was at least 90%. In addition, the IC50 in assay [1] is at least 100 nM. Also, in assay [2], the DC50 fell in the range of 1 to 5 nM; the Dmax was at least 90%; the “PBMC DC90” value is “B (B represents a DC90 value ≥10.0 nM and <25.0 nM)”. Besides, in assay [4], the Dmax was in the range of 80 to 90% and the 50% degradation concentration (DC50) was below 10 nM.
As to `CC(C)Oc1cc2c(cc1NC(=O)c1cnn3cccnc13)CN(C1CCN(CC3(F)CN(c4ccc5c(c4)C(=O)N(C4CCC(=O)NC4=O)C5=O)C3)CC1)C2=O` (stereo not shown) [Example 57, N-(2-(1-((1-(2-(2,6-dioxopiperidin-3-yl)-1,3-dioxoisoindolin-5-yl)-3-fluoroazetidin-3-yl)methyl)piperidin-4-yl)-6-isopropoxy-1-oxoisoindolin-5-yl)pyrazolo[1,5-a]pyrimidine-3-carboxamide], in assay [5], the Dmax is at least 90% and the IC50 was in the range of 50 to 100 nM. Besides, in assay [6], the Dmax was in the range of 70 to 80% and the IC50 fell in the range of 10 to 50 nM. Also, in assay [2], the DC50 is below 1 nM, the Dmax is at least 90% and the “PBMC DC90” value was “A (A represents a DC90 value <10.0 nM)”. In assay [4], this compound came in with a Dmax of at least 90% and a DC50 of 10 to 50 nM.
`CC(C)Oc1cc2c(cc1NC(=O)c1cnn3cccnc13)CN([C@H]1CC[C@H](N3CCN(c4ccc5c(c4)C(=O)N(C4CCC(=O)NC4=O)C5=O)CC3)CC1)C2=O` (stereo partly shown) [Example 66]: the IC50 in assay [1] (Homo sapiens, PBMC, 24 h) was 10 to 50 nM. Besides, in assay [1] (PBMC), the Emax was at least 90%. Also, in assay [2], the DC50 lay in the range of 1 to 5 nM, the Dmax was at least 90% and the “PBMC DC90” value is reported as “A (A represents a DC90 value <10.0 nM)”. Moreover, in assay [3], the IC50 lay within 50 to 100 nM and the Emax was 70 to 80%.
Take `CC(C)Oc1cc2c(cc1NC(=O)c1cnn3cccnc13)CN([C@H]1CC[C@@H](N3CCN(c4ccc5c(c4)C(=O)N(C4CCC(=O)NC4=O)C5=O)CC3)CC1)C2=O` (stereo partly shown) [Example 67]: in assay [1] (Homo sapiens, PBMC, 24 h), the IC50 lay in the range of 10 to 50 nM. Besides, the Emax in assay [1] (PBMC) was at least 90%. In addition, in assay [2], the DC50 lay in the range of 1 to 5 nM; the Dmax was at least 90%; the “PBMC DC90” value is “C (C represents a DC90 value ≥25.0 nM and <50 nM)”. For the same compound, in assay [3], the IC50 was at least 100 nM and the Emax was at least 90%.
In the case of `CC(C)Oc1cc2c(cc1NC(=O)c1cnn3cccnc13)CN(C1CCN(C(C)(C)C3CCN(c4ccc5c(c4)C(=O)N(C4CCC(=O)NC4=O)C5=O)CC3)CC1)C2=O` (stereo not shown) [Example 82], the Dmax in assay [5] is at least 90%; in assay [6] it was 70 to 80%; in assay [2] it was at least 90%; in assay [4], at least 90%. Also, the IC50 in assay [5] and in assay [6] was 10 to 50 nM throughout. Besides, the DC50 in assay [2] is below 1 nM; in assay [4], below 10 nM. For the same compound, the “PBMC DC90” value in assay [2] is reported as “A (A represents a DC90 value <10.0 nM)”.
`O=C1CCC(N2C(=O)c3ccc(N4CCC(F)(CN5CCC(N6Cc7cc(NC(=O)c8cnn9cccnc89)c(OCC8CC8)cc7C6=O)CC5)CC4)cc3C2=O)C(=O)N1` (stereo not shown) [Example 88]: in assay [6], the Dmax lay in the range of 70 to 80% and the IC50 lay within 10 to 50 nM. Besides, in assay [2], the DC50 is below 1 nM, the Dmax is at least 90% and the “PBMC DC90” value is “A (A represents a DC90 value <10.0 nM)”. In assay [4], this compound returned a Dmax of 80 to 90% and a DC50 of 50 to 100 nM.
Regarding `O=C1CCC(N2C(=O)c3ccc(N4CC(CN5CCC(N6Cc7cc(NC(=O)c8cnn9cccnc89)c(N8CCC(N9CCC9)CC8)cc7C6=O)CC5)C4)cc3C2=O)C(=O)N1` (stereo not shown) [Example 98], in assay [2], the DC50 fell in the range of 5 to 10 nM, the Dmax lay in the range of 70 to 80% and the “PBMC DC90” value is “D (D represents a DC90 value ≥50 nM)”. In assay [4], this compound displayed a Dmax of at least 90% and a DC50 of 10 to 50 nM.
Take `O=C1CCC(N2C(=O)c3ccc(N4CCC(CN5CCC(n6cc7cc(NC(=O)c8cnn9cc(Cl)cnc89)c(OCC8CC8)cc7n6)CC5)CC4)cc3C2=O)C(=O)N1` (stereo not shown) [Example 128]: the values for the Dmax in assay [5], in assay [6] and in assay [4] were 80 to 90%, 70 to 80% and at least 90%, respectively. Also, the IC50 in assay [5] and in assay [6] was 10 to 50 nM each time. The compound also yielded a DC50 in assay [4] of 10 to 50 nM.
`O=C1CCC(N2C(=O)c3ccc(N4CCC(F)(CN5CCC(n6cc7cc(NC(=O)c8cnn9cccnc89)c(OCC8CC8)cc7n6)CC5)CC4)cc3C2=O)C(=O)N1` (stereo not shown) [Example 166]: in assay [2], the DC50 lay in the range of 5 to 10 nM; the Dmax is at least 90%; the “PBMC DC90” value was “C (C represents a DC90 value ≥25.0 nM and <50 nM)”. In assay [4], this compound gave a Dmax of at least 90% and a DC50 of 10 to 50 nM.
Regarding `O=C1CCC(N2Cc3cc(N4CC(N5CCC(n6cc7cc(NC(=O)c8cnn9cccnc89)c(OCC8CC8)cc7n6)CC5)C4)ccc3C2=O)C(=O)N1` (stereo not shown) [Example 283], the IC50 in assay [1] (Homo sapiens, PBMC, 24 h) is below 10 nM. Also, the Emax in assay [1] (PBMC) was at least 90%. Further, in assay [2], the DC50 is below 1 nM, the Dmax is at least 90% and the “PBMC DC90” value is reported as “A (A represents a DC90 value <10.0 nM)”. Further, in assay [3], the IC50 lay within 10 to 50 nM and the Emax is below 70%.
As for `CC(C)Oc1cc2c(cc1NC(=O)c1cnn3cccnc13)CN(C1CCC(N(C)C3CN(c4ccc5c(c4)CN(C4CCC(=O)NC4=O)C5=O)C3)CC1)C2=O` (stereo not shown) [Example 314], in assay [1] (Homo sapiens, PBMC, 24 h), the IC50 is below 10 nM. For the same compound, the Emax in assay [1] (PBMC) is at least 90%. Besides, in assay [2], the DC50 was below 1 nM, the Dmax was in the range of 80 to 90% and the “PBMC DC90” value is “A (A represents a DC90 value <10.0 nM)”. Besides, in assay [3], the IC50 lay in the range of 10 to 50 nM and the Emax was in the range of 70 to 80%.
